Test results from patent US8653132B2, “Phosphaplatins and their use in pharmaceutical compositions” (Ohio University, priority 2007, dated 2014).
“Also recorded” adds a separate entry of the source.

Key:
[1] = tested on: A2780/C30 cisplatin-resistant ovarian cell line; test: Clonogenic assay, cisplatin/carboplatin-resistant C30; assay type: cell-based, human; conditions: 1 hour drug treatment, 1 week colony formation
Experimental: A cisplatin-resistant Ovarian cell line (C30) (Hamaguchi, et al., 1993), obtained from Dr. Thomas Hamilton (Fox Chase Cancer Center, Philadelphia, Pa.), was treated with the monomeric platinum complexes of the present invention (shown in FIG. 2). This cell line is also cross resistant to carboplatin. Cells were cultured on monolayer using RPMI 1640 supplemented with 10% fetal bovine serum, 2 mM glutamine, 0.25 units/mL insulin and penicillin/streptomycin in a 37 degrees C. incubator continuously gassed with 5% CO2. Cells were subcultured using 0.025% trypsin in HBSS to maintain cells in exponential growth.
(§1) IC50 values were determined using a clonogenic assay. Briefly, 500 C30 cells from a single cell suspension were plated onto 60 mm Petri plates 24 hours before drug treatment to permit cell attachment. On the day of drug treatment, the medium was decanted and replaced with the drug and these treated cells were placed back into the 37 degrees C. incubator for 1 hour. Triplicate plates were set up for each drug concentration. After the one hour drug treatment, the drug containing medium was decanted and replaced with fresh medium. These plates were returned to the 37 degrees C. incubator for 1 week for colony formation. Colonies were fixed and stained using 2% crystal violet in absolute methanol. Colonies containing more than 50 cells were scored. The number of scored colonies from the triplicate plates was averaged and this number was divided by the number of cells plated to obtain a value for the fraction of cells forming colonies. These values for fraction of cells forming colonies were then corrected for plating efficiency by dividing them by the number of cells forming colonies in plates that were not treated with drug.

CHO cell line = test: Cytotoxic assay, CHO; assay type: cell-based
Text: In some embodiments, the complexes of the present invention are useful for treating various cancers. […] The complexes of the present invention are particularly desirable because they may have reduced toxicity in vivo.

[2] = tested on: A2780 human ovarian cancer cells; test: Clonogenic assay, A2780; assay type: cell-based; conditions: 1 hour drug treatment, 1 week colony formation, read-out: IC50 A780
Experimental: Human ovarian cancer cells, A2780, were obtained from Dr. Thomas Hamilton (Fox Chase Cancer Center, Philadelphia, Pa.). Cells were cultured on monolayer using RPMI 1640 supplemented with 10% fetal bovine serum, 2 mM glutamine, 0.25 units/mL insulin and penicillin/streptomycin in a 37 degrees C. incubator continuously gassed with 5% CO2. Cells were subcultured using 0.0625% trypsin in HBSS to maintain cells in exponential growth.
as §1, with “A2780” for “C30”, “60mm” for “60 mm”, “1” for “one”, “it” for “them”

BAX = test: Apoptotic gene array, real-time PCR: BAX; assay type: cell-based; conditions: preliminary
Experimental: (§2) Preliminary gene expression experiments involving complexes of the present invention as compared to cisplatin (data not shown) were carried out with an apoptotic array containing 84 genes that includes the BCL2 superfamily, both pro- and anti-apoptotic, caspases, the BIR-family, TNF receptor […] factors, p53 and its congeners, and fas associated members by real-time PCR. A closer look at the two sets of gene expressions clearly indicates a number of differences in the expression patterns. […] Specifically, fas was over-expressed by 6-fold compared to the control, and TNFRS genes such as TNFRSF-10B was overexpressed by 2-3 folds over controls. These latter receptor factors belong to the fas superfamily.

fas = test: Apoptotic gene array, real-time PCR: fas; assay type: cell-based; conditions: preliminary
Experimental: as §2

A2780 cells = test: Cellular accumulation of platinum by atomic absorption, A2780; assay type: cell-based, human; conditions: for Cellular accumulation of platinum: 1 hr exposure
Experimental: (§3) Platinum content was quantitatively estimated on a Graphite Furnace Atomic Absorption Spectrometer (Perkin Elmer AA-600) from calibration curves established by using cisplatin or pyrodach-2 in water. Cells (5×10^6) were seeded in T75 cm^2 flasks. After 24 h, these cells were then treated with the different concentrations (0, 10, 20, 30 and 50 μM) of cisplatin and pyrodach-2. After 1 hr exposure with the platinum complexes, the drug-containing medium was removed and the cells were washed with ice-cold phosphate-buffered saline (PBS). The cells were then trypsinized and centrifuged into a pellet. Cell pellets were digested in concentrated HNO3 and H2O2 prior to analysis, according to the method of McGahan. Data reported in Table 4 were collected from three independent experiments each was carried out in duplicate. For the cisplatin accumulation, data were obtained from triplicate runs from a single sample at a given concentration.

BAK1 = test: Apoptotic gene array, real-time PCR: BAK1; assay type: cell-based; conditions: preliminary
Experimental: as §2

A2780/C30 cells [3] = test: Cellular accumulation of platinum by atomic absorption, A2780/C30; assay type: cell-based, human; conditions: 1 hr exposure
Experimental: as §3

[4] = tested on: calf-thymus DNA, oligonucleotide, dGpG, 5'-dGMP and 5'-dAMP; test: Platinum binding to DNA and nucleotides by NMR; conditions: 1H NMR, up to seven days
Experimental: (§4) In the associated experiment, dach-2 was allowed to react with double-stranded calf-thymus DNA, a synthetic oligonucleotide (5′-[…]-3′; SEQ ID NO:1), a dinucleotide (dGpG), and nucleotide monophosphates (5′-dGMP and 5′-dAMP) at concentrations as much as 250-times higher than those of cellular doses. The extent of DNA binding was monitored by ^1H NMR spectroscopy. In parallel, similar reactions with cisplatin were conducted under identical conditions.
(§5) Proton NMR spectroscopic experiments were conducted on a Bruker 500 MHz NMR instrument in 99% (atom) D2O with a water suppression pulse sequence. Samples contained cisplatin (2.0 mM) or pyrodach-2 (2.0 mM) and nucleotides (5′-dGMP, 5′-dAMP, dGpG (5.0 mM)), and, single- and double stranded DNA (calf thymus, 5.0 mM) at pH 7.0 maintained by phosphate and carbonate buffers (10-20 mM). Reactions of cisplatin (0.25 mM) and pyrodach-2 (0.25 mM) with a synthetic 25-mer: 5′-[…]-3′ (SEQ ID NO: 1) (0.25 mM) were also performed under identical conditions. Reactions were carried out up to 7 days, and ^1H and ^31P NMR spectra were recorded at regular time intervals. Usually, a pulse width of 5 μs with a 1.0 s repetition delay was used for the measurements. Typically, a sweepwidth of 10,000 Hz and 32 K data points were selected to collect the Free Induction Decays. A line broadening factor of 1 Hz was for applied Fourier transformation. […]

[5] = tested on: synthetic 25-mer oligonucleotide (SEQ ID NO:1); test: Platinum-DNA binding by NMR, 25-mer oligonucleotide; conditions: 1H NMR, identical conditions for both complexes
Experimental: as §4, §5

guanine base = test: Guanine base binding by proton NMR; conditions: cisplatin after 48 hours, am-2 96 hours, dach-2 106 hours
Experimental: FIG. 12 is a comparison of guanine base binding (the predominant DNA binding site of cisplatin) among cisplatin (bottom), am-2 (middle), and dach-2 (top) by proton NMR spectroscopy. […] The bottom spectrum was recorded after 48 hours. The middle and top spectra were recorded after 96 and 106 hours, respectively.
Proton NMR spectroscopic experiments were conducted on a Bruker 500 MHz NMR instrument in 99% (atom) D2O with a water suppression pulse sequence. Samples contained cisplatin (2.0 mM) or pyrodach-2 (2.0 mM) and nucleotides (5′-dGMP, 5′-dAMP, dGpG (5.0 mM)), and, single- and double stranded DNA (calf thymus, 5.0 mM) at pH 7.0 maintained by phosphate and carbonate buffers (10-20 mM). Reactions of cisplatin (0.25 mM) and pyrodach-2 (0.25 mM) with a synthetic 25-mer: 5′-[…]-3′ (SEQ ID NO: 1) (0.25 mM) were also performed under identical conditions. Reactions were carried out up to 7 days, and ^1H and ^31P NMR spectra were recorded at regular time intervals. Usually, a pulse width of 5 μs with a 1.0 s repetition delay was used for the measurements. Typically, a sweepwidth of 10,000 Hz and 32 K data points were selected to collect the Free Induction Decays. A line broadening factor of 1 Hz was for applied Fourier transformation. The chemical shifts, with reference to H—O-D peak, are at 4.67 ppm.

A2780/C30 cells [6] = test: Cellular accumulation of platinum by atomic absorption, A2780/C30; assay type: cell-based, human; conditions: at its IC50 value
[7] = tested on: UMSCC10b (Cisplatin-sensitive) cells; conditions: from Zheng et al., Clinical Cancer Research 1997; cited from earlier work
[8] = pKa from 31P chemical shift as a function of pH; assay type: physicochemical; conditions: for pKa1 / pKa2: calculated from phosphorus-31 chemical shifts

Structure (SMILES) | IC50 [1] | IC50 (CHO cell line) | IC50 [2] | pKa1 [8] | pKa2 [8] | further results
N.N.O=C([O-])C1(C(=O)[O-])CCC1.[Pt+2] [Carboplatin, diammine-1,1-dicarcarboxylatocyclobutane-platinum(II), reference compound] | > 200 µM | > 200 µM | 90 ± 13 µM | – | – | –
N.N.[Cl][Pt][Cl] [Cisplatin, cisdiamminedichloroplatinum(II), reference compound] | 110 ± 11.3 µM | 29 ± 3 µM | 7.5 ± 1.5 µM | – | – | BAX overexpression (BAX): did not make significant changes; fas over-expression compared to the control (fas): no significant over-expression; also recorded: marginal changes; Cellular accumulation of platinum (A2780 cells; A2780, 10 μM): 3.00 ± 0.05 ng/10^6 cells; Cellular accumulation of platinum (A2780 cells; A2780, 20 μM): 5.00 ± 0.06 ng/10^6 cells; Cellular accumulation of platinum (A2780 cells; A2780, 30 μM): 6.00 ± 0.10 ng/10^6 cells; Cellular accumulation of platinum (A2780 cells; A2780, 50 μM): 20.00 ± 1.00 ng/10^6 cells; accumulation in A2780 cells (A2780 cells; at 10 μM concentration): 3.0 ng Pt/10^6 cells; BAK1 overexpression (BAK1): did not make significant changes; Cellular accumulation of platinum (A2780/C30 cells [3]; A2780/C30, 10 μM): 1.00 ± 0.10 ng/10^6 cells; Cellular accumulation of platinum (A2780/C30 cells [3]; A2780/C30, 20 μM): 2.00 ± 0.40 ng/10^6 cells; Cellular accumulation of platinum (A2780/C30 cells [3]; A2780/C30, 30 μM): 2.00 ± 0.50 ng/10^6 cells; Cellular accumulation of platinum (A2780/C30 cells [3]; A2780/C30, 50 μM): 5.00 ± 1.00 ng/10^6 cells; adduct formation with nucleotides [4]: readily formed adducts with all the nucleotides; DNA binding, 25-mer oligonucleotide [5]: readily forms covalent adducts with DNA; guanine base binding (H8 signal) (guanine base): additional signal at 8.43 ppm for H8 proton due to guanine binding to cisplatin; platinum accumulation in the resistant cell lines (A2780/C30 cells [6]): > 5 ng Pt/10^6 cells; IC50 [7]: 17 µM
N.N.O=P1(O)[O][Pt][O]P(=O)(O)O1 [am-2, Diammine(dihydrogen pyrophosphato)platinum(II)] | > 200 µM | 120 ± 30 µM | 100 ± 11 µM | 2.9 ± 0.3 | 4.7 ± 0.2 | pKa1 (value in parentheses) ([8]; second value printed in parentheses under pKa1, not explained): (3.8 ± 0.1); guanine base binding (H8 signal) (guanine base): only indicates the unbound guanine H8 signal but not platinum bound signal
N.N.O=P1(O)OP(=O)(O)[O][Pt]([OH])([OH])[O]1 [am-4, Cis-diammine-trans-dihydroxo(dihydrogen pyrophosphato)platinum (IV)] | > 200 µM | > 200 µM | 175 ± 22 µM | 2.0 ± 0.1 | 4.7 ± 0.1 | –
NC1CCCCC1N.O=P([O-])(O)OP(=O)([O-])O.[OH-].[OH-].[Pt+4] [dach-4, (Trans-1,2-cyclohexanediamine)-trans-dihyroxo(dihydrogenpyrophosphato)platinum(IV)] | 155 ± 17 µM | 116 ± 17 µM | 180 ± 15 µM | – | – | –
NCCN.O=P([O-])(O)OP(=O)([O-])O.[Pt+2] [en-2, 1,2-Ethanediamine(dihydrogenpyrophosphato)platinum(II)] | – | – | – | 2.2 ± 0.1 | 4.4 ± 0.1 | –
NCCN.O=P([O-])(O)OP(=O)([O-])O.[OH-].[OH-].[Pt+4] [en-4, 1,2-Ethanediamine-trans-dihydroxo(dihydrogenpyrophosphato)platinum(IV)] | > 200 µM | > 200 µM | 170 ± 33 µM | <2 | 4.3 ± 0.1 | –
